Experimental data published in patent US20230357179A1, “RAF KINASE INHIBITORS AND METHODS OF USE THEREOF” (Deciphera Pharmaceuticals, LLC, priority 2021, published 2023).

Tests used:
[1] = target: T1, B-Raf kinase (Homo sapiens, UniProt P15056); assay: Biochemical assay for B-Raf.1 (coupled pyruvate kinase/lactate dehydrogenase); conditions: read-out: BRAF.1 IC50
T1 construct: GST (N); purchased Sigma
Procedure: Biochemical Assay for B-Raf.1
(§1) Activity of B-Raf kinase (SEQ. ID NO: 2) was determined spectroscopically using a coupled pyruvate kinase/lactate dehydrogenase assay that continuously monitors the ATP hydrolysis-dependent oxidation of NADH (e.g., Schindler et al., Science, 2000, 289, 1938-1942). Assays were conducted in 384-well plates (100 μL final volume) using 0.13 nM B-Raf (Sigma), 1.5 units pyruvate kinase, 2.1 units lactate dehydrogenase, 1 mM phosphoenol pyruvate, 0.28 mM NADH, 30.1 nM MEK (SignalChem), and 1 mM ATP in assay buffer (100 mM Tris, pH 7.5, 15 mM MgCl2, 0.5 mM DTT, 0.1% octyl-glucoside, 0.002% (w/v) BSA, and 0.002% Triton X-100). Inhibition of B-Raf was measured by adding serial diluted test compound (final assay concentration of 1% DMSO). A decrease in absorption at 340 nm was monitored continuously for 6 h at 30° C. on a multi-mode microplate reader (BioTek). The reaction rate was calculated using the 4 to 5 h time frame. The reaction rate at each concentration of compound was converted to percent inhibition using controls (i.e., reaction with no test compound and reaction with a known inhibitor) and IC50 values were calculated by fitting a four-parameter sigmoidal curve to the data using Prism (GraphPad software).

[2] = target: T2, B-Raf (V600E) kinase (Homo sapiens, UniProt P15056, V600E); assay: Biochemical assay for B-Raf (V600E).1 (coupled pyruvate kinase/lactate dehydrogenase); conditions: read-out: BRAF V600E.1 IC50
T2 construct: B-Raf (V600E) residues 416-766 with a; GST (N); purchased SignalChem
Procedure: Biochemical Assay for B-Raf (V600E).1
Activity of B-Raf (V600E) (SEQ. ID NO: 4) kinase was determined spectroscopically using a coupled pyruvate kinase/lactate dehydrogenase assay that continuously monitors the ATP hydrolysis-dependent oxidation of NADH (e.g., Schindler et al., Science, 2000, 289, 1938-1942). Assays were conducted in 384-well plates (100 μL final volume) using 0.03 nM B-Raf (SignalChem), 1.5 units pyruvate kinase, 2.1 units lactate dehydrogenase, 1 mM phosphoenol pyruvate, 0.28 mM NADH, 30.1 nM MEK (SignalChem), and 1 mM ATP in assay buffer (100 mM Tris, pH 7.5, 15 mM MgCl2, 0.5 mM DTT, 0.1% octyl-glucoside, 0.002% (w/v) BSA, and 0.002% Triton X-100). Inhibition of B-Raf (V600E) was measured by adding serial diluted test compound (final assay concentration of 1% DMSO). A decrease in absorption at 340 nm was monitored continuously for 6 h at 30° C. on a multi-mode microplate reader (BioTek). The reaction rate was calculated using the 3 to 4 h time frame. The reaction rate at each concentration of compound was converted to percent inhibition using controls (i.e., reaction with no test compound and reaction with a known inhibitor) and IC50 values were calculated by fitting a four-parameter sigmoidal curve to the data using Prism (GraphPad software).

[3] = target: T3, A-Raf kinase (Homo sapiens, UniProt P10398, Y301D/Y302D); assay: Biochemical assay for A-Raf.1 (coupled pyruvate kinase/lactate dehydrogenase); conditions: read-out: ARAF.1 IC50
T3 construct: purchased Sigma
Procedure: Biochemical assay for A-Raf.1
as §1, with “A-Raf” for “B-Raf”, “NO. 1)” for “NO: 2)”, “5.55” for “0.13”

[4] = target: T4, C-Raf kinase (Homo sapiens, UniProt P04049, Y340D/Y341D); assay: Biochemical assay for C-Raf.1 (coupled pyruvate kinase/lactate dehydrogenase); conditions: read-out: CRAF.1 IC50
T4 construct: Y340D,; GST (N); purchased Sigma
Procedure: Biochemical Assay for C-Raf.1
as §1, with “of C-Raf” for “of B-Raf”, “NO: 3)” for “NO: 2)”, “using 0.43” for “using 0.13”, “nM C-Raf” for “nM B-Raf”

[5] = test system: A375 cells; assay: A375 cell proliferation assay (1), resazurin, 96-well; assay type: cell-based; conditions: Homo sapiens, A-375, inhibition of cell proliferation
Procedure: A375 Cell Proliferation Assay (1)
A375 cells (catalog (#CRL-1619) are obtained from the American Type Culture Collect (ATTC, Manassas, VA). Briefly, cells were grown in DMEM High Glucose supplemented with 10% characterized fetal bovine serum (Invitrogen, Carlsbad, CA) and 1% Penicillin/Streptomycin/L-Glutamine at 37° C., 5% CO2, and 95% humidity. Cells are expanded until reaching 70-95% confluency at which point they are sub-cultured or harvested for assay use. A serial dilution of test compound is dispensed into a 96-well black clear bottom plate in triplicate. Two thousand five hundred cells are added per well in 200 μL complete growth medium in the 96-well plate. Plates are incubated for 67-72 hours at 37° C., 5% CO2, and 95% humidity. At the end of the incubation, 40 μL of a 440 μM solution of resazurin (Sigma, St. Louis, MO) in PBS is added to each well of the plate and plates are incubated for an additional 5-6 hours at 37° C., 5% CO2, and 95% humidity. Plates are read on a Synergy2 or equivalent reader (Biotek, Winooski VT) using an excitation of 540 nm and an emission of 600 nm. Data is analyzed using Prism software (GraphPad, San Diego, CA) to calculate IC50 values.

T4 sequence (P04049 307-648 Y340D/Y341D): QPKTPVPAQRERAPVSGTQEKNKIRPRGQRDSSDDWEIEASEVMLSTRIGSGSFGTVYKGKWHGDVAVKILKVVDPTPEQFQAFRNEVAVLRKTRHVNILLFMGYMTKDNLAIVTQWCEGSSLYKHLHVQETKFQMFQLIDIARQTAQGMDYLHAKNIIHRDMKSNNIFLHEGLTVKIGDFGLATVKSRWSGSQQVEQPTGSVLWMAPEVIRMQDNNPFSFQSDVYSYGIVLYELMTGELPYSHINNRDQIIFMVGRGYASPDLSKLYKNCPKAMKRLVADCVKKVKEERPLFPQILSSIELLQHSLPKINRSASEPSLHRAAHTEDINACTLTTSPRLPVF
T3 sequence (P10398 with tags, fused parts or gaps Y301D/Y302D): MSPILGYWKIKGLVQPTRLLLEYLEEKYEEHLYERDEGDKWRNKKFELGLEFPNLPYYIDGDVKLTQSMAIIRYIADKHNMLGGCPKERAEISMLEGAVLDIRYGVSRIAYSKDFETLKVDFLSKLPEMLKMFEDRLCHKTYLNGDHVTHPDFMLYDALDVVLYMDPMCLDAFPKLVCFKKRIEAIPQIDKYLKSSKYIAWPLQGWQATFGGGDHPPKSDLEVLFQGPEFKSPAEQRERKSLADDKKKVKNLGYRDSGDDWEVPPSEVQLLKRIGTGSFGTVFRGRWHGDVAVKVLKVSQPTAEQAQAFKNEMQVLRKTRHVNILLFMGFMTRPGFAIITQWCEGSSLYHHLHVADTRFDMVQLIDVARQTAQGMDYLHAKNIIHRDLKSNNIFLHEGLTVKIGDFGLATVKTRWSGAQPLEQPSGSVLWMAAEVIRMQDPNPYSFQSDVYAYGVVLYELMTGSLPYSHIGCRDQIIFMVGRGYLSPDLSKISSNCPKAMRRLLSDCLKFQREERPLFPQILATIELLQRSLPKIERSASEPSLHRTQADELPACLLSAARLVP
T1 sequence (P15056 416-766): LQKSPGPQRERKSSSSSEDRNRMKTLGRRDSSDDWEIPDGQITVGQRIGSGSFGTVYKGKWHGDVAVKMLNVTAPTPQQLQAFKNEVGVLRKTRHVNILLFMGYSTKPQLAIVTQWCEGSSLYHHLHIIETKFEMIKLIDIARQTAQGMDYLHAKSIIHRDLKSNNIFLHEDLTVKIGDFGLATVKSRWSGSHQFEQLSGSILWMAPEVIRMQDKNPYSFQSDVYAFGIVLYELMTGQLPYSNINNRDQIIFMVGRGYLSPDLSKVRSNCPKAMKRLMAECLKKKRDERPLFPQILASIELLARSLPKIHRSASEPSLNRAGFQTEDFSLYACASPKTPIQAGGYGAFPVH
T2 sequence (P15056 416-766 V600E): as the sequence (P15056 416-766) above, with V185E counted along it

| Structure (SMILES) | IC50 [1] | IC50 [2] | IC50 [3] | IC50 [4] | IC50 [5] |
| --- | --- | --- | --- | --- | --- |
| Cc1ccc(NC(=O)NCCC(C)(C)C)cc1-c1cc(N2CCOCC2)nc(N2CC(C)(O)C2)n1 [Example 1, 1-(3,3-dimethylbutyl)-3-(3-(2-(3-hydroxy-3-methylazetidin-1-yl)-6-morpholinopyrimidin-4-yl)-4-methylphenyl)urea] | ≤ 0.1 µM | ≤ 0.1 µM | > 1 µM | ≤ 0.1 µM | ≤ 0.1 µM |
| CC(=O)Nc1cc(-c2cc(-c3cc(NC(=O)NCCC4(C)CC4)c(F)cc3C)ccn2)ccn1 [Example 2, N-(4-(4-fluoro-2-methyl-5-(3-(2-(1-methylcyclopropyl)ethyl)ureido)phenyl)-[2,4′-bipyridin]-2′-yl)acetamide] | 0.5 to 1 µM | ≤ 0.1 µM | > 1 µM | 0.1 to 0.5 µM | 1 to 10 µM |
| Cc1ncc(NC(=O)NCCC(C)(C)C)cc1-c1cc(N2CCOCC2)c(=O)n(C)c1 [Example 8] | > 1 µM | ≤ 0.1 µM | > 1 µM | 0.5 to 1 µM | – |
| Cc1cc(F)c(NC(=O)NCCC2(C(F)(F)F)CC2)cc1-c1cc(C2CCOCC2)nc(N2CCN(C)CC2)c1 [Example 12] | 0.5 to 1 µM | ≤ 0.1 µM | > 1 µM | 0.1 to 0.5 µM | – |
| Cc1ccc(NC(=O)NC23CC4CC(CC(C4)C2)C3)cc1-c1cc(OCCO)nc(N2CCOCC2)c1 [Example 14] | > 1 µM | ≤ 0.1 µM | > 1 µM | 0.1 to 0.5 µM | – |
| Cc1ncc(NC(=O)NCCC(C)(C)C)cc1-c1ccnc(N2CCOCC2)c1 [Example 16] | 0.5 to 1 µM | ≤ 0.1 µM | > 1 µM | 0.1 to 0.5 µM | – |
| Cc1ncc(NC(=O)NCCC(C)(C)C)cc1-c1cc(N2CCOCC2)c(=O)n(C)n1 [Example 17] | > 1 µM | ≤ 0.1 µM | > 1 µM | > 1 µM | – |
| COC1(CCNC(=O)Nc2cc(-c3cc(-c4cnn(C)c4)nc(N4CCOCC4)c3)c(C)cc2F)CC1 [Example 35] | 0.1 to 0.5 µM | ≤ 0.1 µM | > 1 µM | 0.1 to 0.5 µM | – |
| COC(C)(C)CCNC(=O)Nc1ccc(C)c(-c2cc(-c3cnn(C4CCNCC4)c3)nc(N3CCOCC3)c2)c1 [Example 46] | 0.1 to 0.5 µM | ≤ 0.1 µM | > 1 µM | 0.1 to 0.5 µM | – |
| CC(=O)Nc1cc(-c2cc(-c3cc(NC(=O)NCCCC(F)(F)F)c(F)cc3C)cc(C3CC3)n2)ccn1 [Example 58] | ≤ 0.1 µM | ≤ 0.1 µM | 0.5 to 1 µM | ≤ 0.1 µM | – |
| COC(C)(C)CCNC(=O)Nc1cc(-c2cccc(-c3ccnc(N)c3)c2)c(C)cc1F [Example 70] | 0.1 to 0.5 µM | ≤ 0.1 µM | > 1 µM | 0.1 to 0.5 µM | – |
| Cc1ncc(NC(=O)N2CCOCC2)cc1-c1cccc(-c2cc(NC(=O)C3CC3)ncn2)c1 [Example 74] | > 1 µM | 0.1 to 0.5 µM | > 1 µM | > 1 µM | – |
| Cc1cc(F)c(NC(=O)N[C@H]2C[C@H](N(C)C)C2)cc1-c1cc(OCCO)nc(-c2ccnc3[nH]ncc23)c1 [Example 86] | > 1 µM | 0.1 to 0.5 µM | > 1 µM | > 1 µM | – |
| CNC(=O)c1cc(-c2cnnc(-c3cc(NC(=O)N4CC[C@H](OC)C4)cnc3C)c2)ccn1 [Example 189] | > 1 µM | > 1 µM | > 1 µM | > 1 µM | – |
| COC(=O)Nc1cc(-c2cnnc(-c3cccc(NC(=O)N4CC[C@H](OC)C4)c3)c2)ccn1 [Example 190] | > 1 µM | > 1 µM | > 1 µM | > 1 µM | – |
| COC(=O)Nc1cc(-c2cnnc(-c3cc(NC(=O)N4CCC(C)(C)C4)cnc3C)c2)ccn1 [Example 191] | > 1 µM | > 1 µM | > 1 µM | > 1 µM | – |
| CNC(=O)c1cc(-c2cnnc(-c3cc(NC(=O)N4CCC(CC(F)(F)F)C4)cnc3C)c2)ccn1 (stereo not drawn) [Example 192] | > 1 µM | > 1 µM | > 1 µM | 0.5 to 1 µM | – |
| COC(=O)Nc1cc(-c2cc(-c3cc(NC(=O)N4CCC(C)(C)C4)cnc3C)ccn2)ccn1 [Example 198] | 0.5 to 1 µM | > 1 µM | > 1 µM | 0.1 to 0.5 µM | – |
| COC(=O)Nc1cc(-c2cnnc(-c3cccc(NC(=O)N4CC[C@@H](OC)C4)c3)c2)ccn1 [Example 199] | > 1 µM | > 1 µM | > 1 µM | > 1 µM | – |
| COC(=O)Nc1cc(-c2cnnc(-c3cc(NC(=O)N4CC[C@@H](OC)C4)cnc3C)c2)ccn1 [Example 203] | > 1 µM | > 1 µM | > 1 µM | > 1 µM | – |
| CNC(=O)c1cc(-c2cnnc(-c3cc(NC(=O)N4CC[C@@H](OC)C4)cnc3C)c2)ccn1 [Example 204] | > 1 µM | > 1 µM | > 1 µM | > 1 µM | – |
| COC(=O)Nc1cc(-c2cc(-c3cc(NC(=O)N4CCC(C(C)(C)O)C4)cnc3C)ccn2)ccn1 (stereo not drawn) [Example 212] | > 1 µM | > 1 µM | > 1 µM | 0.5 to 1 µM | – |
